Counter-ions that a name gives are not always drawn. Like-named read-outs stand apart in the source and are kept apart here.
Columns and labels:
5-HT1B = biological target: T1, 5-HT1B (Rattus norvegicus, UniProt P28564); experiment: 5-HT1B receptor binding (Peroutka)
T1 construct: from tissue; host or cells: rat frontal cortex
Method: (§1) The IC50 values of the various products which form part of this invention for the other receptors were measured according to the techniques described in the following references:
(§2) Peroutka S. J. Pharmacological differentiation and characterization of 5-HT1A, 5-HT1B and 5-HT1C binding sites in rat frontal cortex. J. Neurochem., 45, 529-540, 1986.

5-HT1C = biological target: T2, 5-HT1C (Sus scrofa, UniProt K7GSR7); experiment: 5-HT1C receptor binding (Pazos et al.); parameters: species or system porcine
T2 construct: serotonergic ligands to the porcine choroid plexus; from tissue; host or cells: porcine choroid plexus
T2 sequence (K7GSR7 1-457): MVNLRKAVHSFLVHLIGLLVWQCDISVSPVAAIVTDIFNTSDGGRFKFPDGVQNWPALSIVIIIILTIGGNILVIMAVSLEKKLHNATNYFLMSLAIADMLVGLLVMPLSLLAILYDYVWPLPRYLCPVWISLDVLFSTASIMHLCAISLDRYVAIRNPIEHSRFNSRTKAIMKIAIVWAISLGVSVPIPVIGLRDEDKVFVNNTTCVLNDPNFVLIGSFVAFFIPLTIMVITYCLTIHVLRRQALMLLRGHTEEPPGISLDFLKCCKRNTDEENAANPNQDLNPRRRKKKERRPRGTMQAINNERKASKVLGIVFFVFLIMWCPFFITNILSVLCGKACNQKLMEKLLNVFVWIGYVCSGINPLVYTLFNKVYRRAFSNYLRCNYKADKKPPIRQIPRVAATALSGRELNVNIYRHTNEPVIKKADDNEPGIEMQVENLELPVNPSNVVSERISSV
Method: as §1
Pazos A., Hoyer D. and Palacios J. M. The binding sites of serotonergic ligands to the porcine choroid plexus: characterization of a new type of serotonin recognition site. Eur. J. Pharmacol., 106, 539-546, 1985.

α2-Adrenergic receptor = biological target: T3, α2-Adrenergic receptor (Rattus norvegicus, UniProt P22909); experiment: α2-Adrenergic receptor binding (Mallard et al.)
T3 construct: in the rat brain; from tissue; host or cells: rat brain
T3 sequence (P22909 1-465): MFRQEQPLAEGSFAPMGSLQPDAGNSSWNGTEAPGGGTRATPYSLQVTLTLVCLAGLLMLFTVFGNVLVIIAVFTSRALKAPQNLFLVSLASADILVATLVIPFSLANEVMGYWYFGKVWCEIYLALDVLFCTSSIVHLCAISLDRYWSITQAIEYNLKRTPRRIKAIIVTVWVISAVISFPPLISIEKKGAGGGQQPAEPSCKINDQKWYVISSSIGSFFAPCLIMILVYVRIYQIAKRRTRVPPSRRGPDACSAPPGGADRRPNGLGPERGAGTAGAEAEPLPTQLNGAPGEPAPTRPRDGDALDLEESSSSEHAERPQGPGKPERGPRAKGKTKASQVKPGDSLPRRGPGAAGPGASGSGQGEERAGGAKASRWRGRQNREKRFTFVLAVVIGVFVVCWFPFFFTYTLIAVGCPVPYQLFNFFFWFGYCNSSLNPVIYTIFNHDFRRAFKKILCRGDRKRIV
Method: as §1
Mallard N. J., Tyacke R., Hudson A. L. and Nutt D. S. Comparative binding studies of ^3 -idazoxan and ^3 -RX821002 in the rat brain. Brit. J. Pharmacol. 102, 221P, 1991.

5-HT1A = biological target: T4, 5-HT1A (Rattus norvegicus, UniProt P19327); experiment: 5-HT1A receptor binding (Peroutka)
T4 construct: from tissue; host or cells: rat frontal cortex
T4 sequence (P19327 1-422): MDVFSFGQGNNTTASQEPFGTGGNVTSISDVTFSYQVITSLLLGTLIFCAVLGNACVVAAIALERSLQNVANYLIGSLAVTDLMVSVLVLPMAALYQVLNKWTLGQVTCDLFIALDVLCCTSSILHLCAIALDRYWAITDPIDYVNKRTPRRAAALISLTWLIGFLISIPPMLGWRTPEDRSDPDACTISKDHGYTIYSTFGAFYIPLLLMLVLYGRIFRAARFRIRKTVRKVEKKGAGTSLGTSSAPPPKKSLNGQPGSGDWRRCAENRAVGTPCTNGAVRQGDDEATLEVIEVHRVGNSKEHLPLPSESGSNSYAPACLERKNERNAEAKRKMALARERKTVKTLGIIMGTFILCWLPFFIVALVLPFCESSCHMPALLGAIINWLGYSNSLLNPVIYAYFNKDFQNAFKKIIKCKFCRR
Method: as §1, §2

5-HT1D = experiment: Affinity for 5-HT1D receptors (3H-5-HT binding, sheep caudate nuclei membranes); details: Ratio of the IC50 values for the 5HT1A and 5HT1D receptors
Method: This study is carried out according to the technique described by Herrick-Davis and Titeler (J. Neurochem. 50, 1624-1631, 1988).
Preparation of the membranes:
Sheep brains are removed at the local abattoir and transported in ice. The caudate nuclei are removed, weighed and homogenized with a Polytron for 20 sec. (speed 6-7) in 20 volumes of Tris-HCl 50 mM, pH 7.7. The homogenate is centrifuged for 10 min at 48,000 g with an L5 50E centrifuge (Beckman).
The pellet, taken up in 20 volumes of Tris-HCl 50 mM, pH 7.7, is placed in a water bath at 37° C. for 10 min and then recentrifuged for 10 min at 48,000 g. The pellet then obtained is immediately frozen in fractions containing 0.5 g of tissue.
The pellet is defrosted and homogenized with a Dounce in 80 volumes of Tris-HCl, 50 mM pH 7.7 containing 4 mM CaCl2, 10μM of pargyline and 0.1% of ascorbic acid.
Binding is carried out at 25° C. by incubating for 30 min:
0.1 ml of buffer or 10 μM, as final concentration, of sumatriptan, in order to obtain the non-specific binding, or the product which forms part of this invention at various concentrations (between 10^-10 and 10^-6 M).
0.8 ml of membrane suspension
0.1 ml of ^3 H-5-HT (15 to 30 Ci/mM, New England Nuclear France)
The incubation is brought to an end by rapid filtration through GF/B filters and rinsing with 3 times 3 ml of ice-cold buffer, using a harvester manufactured by Brandel which makes it possible to filter 48 samples. The filters are introduced into vials containing 4 ml of emulsifier-safe liquid scintillant (Packard) and the radioactivity measured with a Tri-carb 4640 counter (Packard).
The IC50 (concentration which inhibits the specific affinity by 50%) is determined graphically.

5-HT2 = biological target: T5, 5-HT2 (Rattus norvegicus, UniProt P14842); experiment: 5-HT2 receptor binding (Leysen et al.); details: 3H-ketanserine (title of cited method)
T5 construct: from tissue
Method: as §1
Leysen J. E., Niemegeers C. J. E., Van Nueten J. M. and Laduron P.M. ^3 H-ketanserine (R 41468), a selective ^3 H ligand for serotonin2 receptor binding sites. Mol. Pharmacol., 21, 301-330, 1982.

D2-Dopaminergic receptor = biological target: T6, D2-Dopaminergic receptor (Canis lupus familiaris, UniProt Q9GJU1); experiment: D2-Dopaminergic receptor binding (Nisnik et al.)
T6 construct: from tissue
Method: as §1
Nisnik H. B., Grigoriadis D. E., Pri-Bar I., Buckman O. and Seeman P. Dopamine D2 receptors selectively labeled by a benzamide neuroleptic: ^3 H-YM-09159-2 Naunyn-Schmiedeberg's Arch. Pharmacol. 329, 333-343, 1985.

α1-Adrenergic receptor = α1-Adrenergic receptor binding (Leslie Morrow and Creese); details: rat brain (title of cited method)
Method: as §1
Leslie Morrow A. and Creese I. Characterization of α1-adrenergic receptor subtypes in rat brain: a reevaluation of ^3 H-WB4101 and ^3 H prazosin binding. Mol. Pharmacol. 29, 321-330, 1986.

[1] = rat brain (title of cited method), read-out: IC50 α2
[2] = 3H-YM-09159-2 (title of cited method), read-out: IC50 D2
[3] = rat frontal cortex (title of cited method), mean, read-out: IC50 5-HT1A mean
[4] = rat frontal cortex (title of cited method), mean, read-out: IC50 5-HT1B mean
[5] = porcine choroid plexus (title of cited method), read-out: IC50 5-HT1C

T1 sequence (P28564 whole entry): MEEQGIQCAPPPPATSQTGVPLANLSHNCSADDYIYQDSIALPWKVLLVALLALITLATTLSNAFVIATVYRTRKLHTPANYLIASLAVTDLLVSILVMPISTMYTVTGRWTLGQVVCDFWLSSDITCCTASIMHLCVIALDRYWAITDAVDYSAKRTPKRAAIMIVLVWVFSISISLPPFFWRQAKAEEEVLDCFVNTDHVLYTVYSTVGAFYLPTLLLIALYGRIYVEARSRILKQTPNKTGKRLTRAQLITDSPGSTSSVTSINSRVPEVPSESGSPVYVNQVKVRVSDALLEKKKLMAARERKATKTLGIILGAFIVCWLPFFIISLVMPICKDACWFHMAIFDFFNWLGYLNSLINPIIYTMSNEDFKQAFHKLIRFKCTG
T5 sequence (P14842 whole entry): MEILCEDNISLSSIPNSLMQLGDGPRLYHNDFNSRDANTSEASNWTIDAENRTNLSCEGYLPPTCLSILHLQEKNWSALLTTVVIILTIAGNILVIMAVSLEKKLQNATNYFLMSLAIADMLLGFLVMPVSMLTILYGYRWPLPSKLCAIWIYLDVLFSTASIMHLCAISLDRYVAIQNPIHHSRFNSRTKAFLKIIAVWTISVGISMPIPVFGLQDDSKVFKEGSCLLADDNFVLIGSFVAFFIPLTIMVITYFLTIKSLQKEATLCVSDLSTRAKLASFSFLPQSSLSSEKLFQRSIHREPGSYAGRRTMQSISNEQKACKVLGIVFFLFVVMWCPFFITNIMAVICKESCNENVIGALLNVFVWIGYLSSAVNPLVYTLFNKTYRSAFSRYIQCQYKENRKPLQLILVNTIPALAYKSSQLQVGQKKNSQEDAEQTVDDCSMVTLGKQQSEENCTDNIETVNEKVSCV
T6 sequence (Q9GJU1 whole entry): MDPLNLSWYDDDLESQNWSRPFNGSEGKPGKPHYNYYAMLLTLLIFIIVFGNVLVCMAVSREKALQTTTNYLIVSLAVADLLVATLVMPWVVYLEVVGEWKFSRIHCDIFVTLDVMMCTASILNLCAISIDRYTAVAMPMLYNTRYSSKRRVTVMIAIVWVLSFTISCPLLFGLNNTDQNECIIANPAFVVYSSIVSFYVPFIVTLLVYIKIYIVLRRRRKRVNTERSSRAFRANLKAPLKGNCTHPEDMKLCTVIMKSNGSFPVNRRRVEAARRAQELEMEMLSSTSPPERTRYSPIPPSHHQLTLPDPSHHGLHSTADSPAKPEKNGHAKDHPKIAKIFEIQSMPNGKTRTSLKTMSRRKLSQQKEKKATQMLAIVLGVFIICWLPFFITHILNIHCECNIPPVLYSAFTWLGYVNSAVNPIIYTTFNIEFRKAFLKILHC

SMILES | IC50 (5-HT1B) [µM] | IC50 (5-HT1C) [µM] | IC50 (α2-Adrenergic receptor; [1]) [µM] | IC50 (5-HT1A) [µM] | Ratio 1A/1D (5-HT1D) | IC50 (5-HT2) [µM] | IC50 (D2-Dopaminergic receptor; [2]) [µM] | IC50 (α1-Adrenergic receptor) [µM] | IC50 (5-HT1A; [3]) [µM] | IC50 (5-HT1B; [4]) [µM] | IC50 (5-HT1C; [5]) [µM] | IC50 (α2-Adrenergic receptor) [µM] | IC50 (D2-Dopaminergic receptor) [µM]
Cc1ccccc1N1CCN(C(=O)COc2ccc3[nH]cc(CCN)c3c2)CC1 [Example 1, 4-o-Tolyl-1-.(tryptamine-5-O-carboxymethyl)-piperazide hydrochloride] | 0.0006 | 3 | > 1 | 0.0235 | 11.2 | > 1 | > 1 | > 1 | – | – | – | – | –
NCCc1c[nH]c2ccc(OCC(=O)N3CCN(c4cccc(C(F)(F)F)c4)CC3)cc12 [Example 3, 4-(a,a,a-Trifluoro-m-tolyl)-1-(tryptamine-5-O-carboxymethyl) piperazide hydrochloride] | 0.0019 | 4 | > 1 | 0.0335 | 4.8 | > 1 | > 1 | > 1 | – | – | – | – | –
NCCc1c[nH]c2ccc(OCC(=O)N3CCN(c4cccc5ccccc45)CC3)cc12 [Example 4, 4-(Naphth-1-yl)-1-(tryptamine-5-O-carboxymethyl) piperazide hydrochloride] | 0.0019 | 1.8 | > 1 | – | 35.9 | > 1 | > 1 | > 1 | 0.115 | – | – | – | –
Cc1cccc(N2CCN(C(=O)COc3ccc4[nH]cc(CCN)c4c3)CC2)c1C [Example 5, 4-(2,3-Xylyl)-1-(tryptamine-5-O-carboxymethyl) piperazide hydrochloride] | 0.006 | > 1 | > 1 | – | 8.2 | > 1 | > 1 | > 1 | 0.24 | – | – | – | –
Cc1cccc(N2CCN(C(=O)COc3ccc4[nH]cc(CCNC(=O)OC(C)(C)C)c4c3)CC2)c1C [Example 5A, 4-(2,3 -Xylyl)-1-(tert-butoxycarbamate-tryptamine-5-O-carboxymethyl)piperazide hydrochloride] | – | – | > 1 | – | 17.3 | > 1 | > 1 | > 1 | 0.0345 | 0.001 | 1 | – | –
COc1cccc(N2CCN(C(=O)COc3ccc4[nH]cc(CCN)c4c3)CC2)c1 [Example 6, 4-(m-Methoxyphenyl)-1-(tryptamine-5-O-carboxymethyl) piperazide hydrochloride] | 0.0011 | – | – | 0.0235 | 8.1 | > 1 | – | > 1 | – | – | > 1 | > 1 | > 1
COc1cccc(N2CCN(C(=O)COc3ccc4[nH]cc(CCNC(=O)OC(C)(C)C)c4c3)CC2)c1 [Example 6A, 4-(m-Methoxyphenyl)-1-(tert-butoxycarbamate-tryptamine-5-carboxymethyl)piperazide hydrochloride] | – | – | > 1 | – | 6.3 | > 1 | > 1 | > 1 | 0.1 | 0.0015 | > 1 | – | –
CN1CCN(C(=O)COc2ccc3[nH]cc(CCN)c3c2)CC1 [Example 7, 4-Methyl-1-(tryptamine-5-O-carboxymethyl)piperazide hydrochloride] | – | > 1 | > 1 | – | > 1.4 | > 1 | > 1 | > 1 | > 1 | 0.355 | – | – | –
CSc1ccc2c(c1)C(N1CCN(C(=O)COc3ccc4[nH]cc(CCNC(=O)OC(C)(C)C)c4c3)CC1)Cc1ccccc1S2 (stereo not shown) [Example 8, 1-[(tert-Butoxycarbamate)tryptamine-5-O-carboxymethyl]-4-[10-(8-methylthio-10-11-dihydrodibenzo[b, f]thiepine)]piperazide hydrochloride] | – | – | – | – | – | – | – | – | > 1 | 1 | – | – | –
Cc1ccccc1N1CCN(C(=O)C(Oc2ccc3[nH]cc(CCN)c3c2)c2ccccc2)CC1 (stereo not drawn) [Example 9, 4-O-Tolyl-1-[tryptamine-5-O-(α-phenylcarboxymethyl)]piperazide hydrochloride] | – | – | > 1 | – | 1.7 | 0.55 | > 1 | > 1 | 0.325 | 0.085 | 0.6 | – | –
Cc1ccccc1N1CCN(C(=O)C(C)Oc2ccc3[nH]cc(CCN)c3c2)CC1 (stereo not drawn) [Example 11, 4-o-Tolyl-1-[tryptamine-5-O-(α-methylcarboxymethyl)]piperazide hydrochloride] | 0.0055 | 1 | – | – | 20.8 | > 1 | – | – | 0.125 | – | – | – | –
Cc1ccccc1N1CCN(C(=O)COc2ccc3[nH]cc(CCNC(=O)OC(C)(C)C)c3c2)CC1 [ID, 4-o-Tolyl-1-(tert-butoxycarbamate-tryptamine-5-O-carboxymethyl) piperazide hydrochloride] | – | – | 7 | – | 18.5 | 2 | > 0.1 | 8.5 | 0.12 | – | – | – | –

Source: patent publication US5641779A, “Selective ligands of 5-HT1D -5-HT1B receptors derived from indolepiperazine which are useful medicaments” (Pierre Fabre Medicament, priority 1992, dated 1997)
